“Also recorded” adds a separate entry of the source. Ends that are not written are not given here.
Experiments:
[1] = system: pharate 5th instar larvae; assay: Injection into pharate 5th instar larvae: induction of pre-ecdysis and ecdysis behavior; format: in vivo, Manduca sexta; settings: for biological activity of additional EG peptides: initial RPLC data on EG
Experimental: A peptide with ecdysis-triggering activity was also purified from an extract of 50 pharate pupal EG with reversed-phase liquid chromatography (RPLC) (FIG. 1A) . For HPLC fractionation, freshly-dissected EG were homogenized in acidic methanol (MeOH: H2 O:acetic acid, 90:9:1) and the supernatant was evaporated to dryness. Crude extracts of EG were fractionated with a Microsorb C4 column (wide pore 300 A, 4.6 mm/25 cm), with a linearly increasing gradient of acetonitrile (3 to 53% in 90 min) in constant 0.1% TFA/water using a flow rate of 1 ml/min. Fractions were collected based on UV absorbance (220 nm) and vacuum centrifuged to dryness. Individual fractions were re-suspended in physiological saline and injected into pharate fifth instar Manduca sexta larvae. Induction of preecdysis behavior, visible as synchronous dorso-ventral contractions in body segments, were scored as positive responses.
(§1) Natural ecdysis in pharate 5th instar larvae is preceded by a well-defined pre-ecdysis behavior, characterized by dorso-ventral contractions that occur synchronously in abdominal and thoracic segments (Copenhaver and Truman, 1982; Truman and Weeks, 1983, 1985). Contractions, visible as a dimpling of the dorso-lateral body wall, begin in the most posterior segment, and gradually spread anteriorly. Pre-ecdysis behavior typically lasts 60 to 80 min, and is followed by ecdysis behavior, which lasts about 10 min. Ecdysis behavior is characterized by a distinctly different motor pattern consisting of peristaltic waves of contractions, which originate in the most posterior segment and move anteriorly (Weeks and Truman, 1984). Using a pressure transducer to record changes in internal pressure, in vivo measurements of pre-ecdysis and ecdysis contraction patterns were obtained in pharate 5th instar larvae and pharate pupae. Internal hydrostatic pressure was measured in pharate 5th instar larvae and pharate pupae of Manduca sexta with a Gould-Statham P23-ID pressure transducer. The transducer was connected to a saline-filled tube which in turn was attached to the posterior dorsal horn of pharate 5th instar larvae and pharate pupae with low melting point dental wax.
During natural pre-ecdysis in the larva, dorso-ventral contractions typically occur every 10 to 12 seconds with a duration of 5 to 7 seconds (FIG. 2A). When pharate larvae were injected with Mas-ETH (20 pmol to 1 nmol), pre-ecdysis began within 2 to 10 min, and the pattern was indistinguishable from that observed under natural conditions (n=13). The pre-ecdysis induced by Mas-ETH injection lasted 35 to 65 min, and was followed by ecdysis (FIG. 2A).
At about 36 hours preceding natural ecdysis in pharate 5th instar larvae, the first signs of apolysis can be observed as an accumulation of molting fluid in the prothorax. About two hours later, head capsule slip occurs (Curtis et al., 1984). Premature ecdysis behavior induced by Mas-ETH injection (34-10 hours prior to natural ecdysis) lasted from 10 to 45 min. […] Mas-ETH triggered successful ecdysis only after the old cuticle is sufficiently digested, some 6 to 8 hr before normal ecdysis. Sensitivity to ETH, therefore, is shown to exist during the pharate stage.
The ETH-PRP1 peptide was dissolved into physiological saline and injected into pharate fifth instar Manduca sexta larvae. A dose range of 50 pmol to 5 nmol was tested.

[2] = system: pharate pupae; assay: Injection into pharate pupae: induction of pre-ecdysis and ecdysis; format: in vivo, Manduca sexta; settings: 400 pmol to 1 nmol
Experimental: as §1
Pharate pupae responded to injections (400 pmol to 1 nmol) (FIG. 2B; n=12) up to 48 hours prior to natural ecdysis. […]

[3] = system: pharate adults; assay: Injection into pharate adults: induction of ecdysis (eclosion); format: in vivo, Manduca sexta
Experimental: Pharate pupae responded to injections (400 pmol to 1 nmol) (FIG. 2B; n=12) up to 48 hours prior to natural ecdysis. […] Ecdysis followed after a period of 50 to 90 min. Pharate adults responded to Mas-ETH injections (1 to 2 nmol) up to 24 hours prior to natural ecdysis (n=10). Rotatory movements of the abdomen began within 3 to 10 min of injection and were followed by a period of relative quiescence.

[4] = system: isolated central nervous system of pharate 5th instar larvae; assay: Motor burst patterns of isolated central nervous system of pharate 5th instar larvae, bath application; format: cell-based, Manduca sexta
Experimental: (§2) The entire central nervous system or a chain of abdominal ganglia dissected from pharate fifth instar larvae or pharate pupae were placed in a 300 ml Sylgard bath and bathed in modified Weever's saline. Motor output was recorded extracellularly from dorsal roots of abdominal ganglia A5, A6, and A7 using polyethylene suction electrodes. Potentials were amplified with Grass P-15 AC amplifiers, captured on video tape, and played back on a Gould Brush pen recorder. To record natural pre-ecdysis and ecdtysis, the nervous system was removed after initiation of the behavior.
For studies involving bath application of synthetic MasETH, pharate 5th instar nerve cords were dissected at -8 hr prior to ecdysis, using liquid-Lilled head and brown mandibles as morphological markers. Pharate pupae were dissected at 8 hours prior to natural ecdysis using brown bars as the morphological marker.
(§3) The tracheal system was removed in all studies. The pattern of pre-eccdysisin isolated pharate 5th instar CNS under natural conditions was quite similar to that elicited by application of 100 nM Mas-ETH. To observe natural pre-ecdysis and ecdysis motor patterns, animals were observed until initiation of pre-ecdysis, at which time nerve cords were quickly removed and prepared for suction electrode recordings. In both instances, pre-ecdysis bursts occurred synchronously in the dorsal nerves of A5-A7 every 10 to 12 seconds with a duration of 5 to 10 sec. Similarly, the burst pattern driving ecdysis in pharate larvae under natural conditions was similar to that resulting from exposure to 1 mM Mas-ETH. Ecdysis bursts occurred every 20 to 30 seconds and were about 20 sec in duration, with an intersegmental delay of about 5 sec. Burst durations and intervals between bursts became longer as the behavior progressed, which corresponded to observations of natural behavior patterns. Optimal Mas-ETH concentrations for triggering pre-ecdysis were lower than those necessary for ecdysis.

[5] = system: isolated nerve cords lacking the tracheal system; assay: Pre-ecdysis and ecdysis motor patterns in isolated nerve cords lacking the tracheal system; format: cell-based, Manduca sexta; settings: absence of the tracheal system
Experimental: as §2
as §3, with “Burst durations and intervals between bursts became longer as the behavior progressed, which corresponded to observations of natural behavior patterns. Optimal Mas-ETH concentrations for triggering pre-ecdysis were lower than those necessary for ecdysis.” left out

[6] = system: pharate fourth instar Manduca sexta larvae; assay: Injection into pharate fourth instar larvae (liquid-filled head capsule stage), carboxy-terminus study; settings: in vivo
Experimental: The amidated and acid form of the 26 mer of SEQ ID NO:3 was prepared using a solid state synthesizer. This procedure is the same as that described at example 7. The amidated and acid forms of ETH used in the present study were synthesized by Research Genetics Corporation using these standard protocols (5 mg. each of the amidated-ETH and the acid-ETH).

[7] = system: pharate 5th instar larvae; assay: Injection into pharate 5th instar larvae: induction of pre-ecdysis and ecdysis behavior; format: in vivo, Manduca sexta; settings: injected into insect larvae
[8] = Physiological actions of ETH-PRP2 (no method described)
[9] = system: larval insects; assay: Injection of synthetic Bom-ETH forms into larval insects; format: in vivo, Bombyx mori; settings: free acid at doses much higher than the amidated form
Experimental: Synthetic Bom-ETH was prepared according to standard solid phase peptide synthesis methods by Research Genetics, Inc. (Birmingham, AL) to provide a peptide having the amino acid sequence of the 23 mer. Both the amidated and free --COOH terminal forms were prepared.

For CCOc1ccc2nc(S(N)(=O)=O)sc2c1 [Mas-ETH], the “behavior exhibited after injection” value ([1]; injected at head capsule slip, 34 hours prior to normal ecdysis) was “both pre-ecdysis and ecdysis motor patterns”, the “outcome of premature ecdysis behavior” value ([1]; injection 34-10 hours prior to natural ecdysis) was “ecdysis could not be completed” and the “time prior to normal ecdysis at which larvae respond to injection” value ([1]; pre-ecdysis behavior, n=7) was “up to 36 hours”. The “pre-ecdysis by blood pressure measurements” value ([2]; earlier stages of development) was “clear rhythm within minutes”, the “time prior to natural ecdysis at which pharate pupae respond to injection” value ([2]; n=12) was “up to 48 hours” and the “time prior to natural ecdysis at which pharate adults respond to injection” value ([3]; 1 to 2 nmol, n=10) was “up to 24 hours”. For the same compound, the “condition of emerged adults” value ([3]; emerged before resorption of molting fluid) was “could not inflate their wings”, the “interval of pre-ecdysis bursts (every)” value ([4]; 100 nM, dorsal nerves of A5-A7) was 10 to 15 s and the pre-ecdysis burst duration ([4]; 100 nM, dorsal nerves of A5-A7) was 5 to 7 s. The ecdysis burst duration ([4]; 1 mM Mas-ETH) was “about 20 sec”, the “intersegmental delay of ecdysis bursts” value ([4]; 1 mM Mas-ETH) was “about 5 sec” and the “pre-ecdysis and ecdysis motor patterns of isolated CNS” value [5] was “elicited motor burst patterns; also recorded: can generate pre-ecdysis and ecdysis motor patterns”. The “pre-ecdysis and ecdysis motor patterns of isolated CNS” value ([5]; listed as ETH) was “responds to ETH; also recorded: responded; also recorded: not required” and the “dose causing preecdysis followed by ecdysis” value [6] was at most 1 pmol.
With “ETH-PRP1: 47-mer peptide, Asn 66 to Met 112 of the ETH precursor, SEQ ID NO:14, chemically synthesized (NYDSENRFDIPKLYPWRAENTELYEDDAQPTNGEEINGFYGKQRENM)” the ecdysis behavior ([1]; dose range 50 pmol to 5 nmol) was “did not elicit ecdysis behavior”, the “latency from injection to preecdysis behavior” value ([1]; dose range 50 pmol to 5 nmol) was 15 to 20 min and the pre-ecdysis stimulating activity ([1]; in vivo) was “pre-ecdysis stimulating activity”. For the same compound, the “biological activity of additional EG peptides” value [1] was “ETH-like biological activity” and the cardioactivity [7] was “causes cardioacceleration”.
With “ETH-PRP2: 15-mer peptide deduced from the ETH precursor, Gln 20 to Val 34, SEQ ID NO:13 (QVESSFIKPNNVPRV)” the “biological activity of additional EG peptides” value [1] was “ETH-like biological activity”, the cardioacceleration [8] was “acts as a cardioaccelerator” and the “effect on physiological actions of Mas-ETH” value [8] was “increasing its ecdysis triggering activity”.
For “SNEAFDEDVMGYVIKSNKNIPRM (not fully specified (C-terminus)) [Bom-ETH amidated form]”, the “biological activity upon injection” value [9] was “biologically active”.

Source: patent US5763400A, “Ecdysis-triggering hormone compositions” (priority 1996, dated 1998)
